Reference: patent publication US7705028B2, “Farnesoid X receptor agonists” (GlaxoSmithKline LLC, priority 2005, dated 2010)
Counter-ions that a name gives are not always drawn. Like-named read-outs stand apart in the source and are kept apart here.

Tests used:
[1] = biological target: T1, human FXR ligand binding domain (LBD) (Homo sapiens, UniProt Q96RI1); experiment: FXR Cofactor Binding Assay (TRF, SRC-1 peptide recruitment); format: biochemical; settings: read-out: Activity (pEC50) (converted)
T1 construct: polyhistidine (pRSET-A vector leader) (N); made in house; host or cells: E. coli BL21 (DE3), pRSET-A vector
T1 sequence (Q96RI1 237-472 isoform Q96RI1-2): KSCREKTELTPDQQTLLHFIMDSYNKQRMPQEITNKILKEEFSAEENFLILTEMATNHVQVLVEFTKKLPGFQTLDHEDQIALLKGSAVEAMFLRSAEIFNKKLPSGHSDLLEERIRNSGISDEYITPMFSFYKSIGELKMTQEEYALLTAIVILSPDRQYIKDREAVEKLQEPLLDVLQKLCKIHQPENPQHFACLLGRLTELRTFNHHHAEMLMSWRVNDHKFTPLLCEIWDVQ
T1 sequence (Q15788 676-700 partner): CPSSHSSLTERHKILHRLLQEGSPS
Text: Determination of a ligand mediated cofactor peptide interaction to quantify ligand binding to the nuclear receptor Farnasoid X Receptor (FXR). The method measures the ability of putative ligands to modulate the interaction between the purified bacterial expressed human FXR ligand binding domain (LBD) and a synthetic biotinylated peptide based on residues 676-700 of steroid receptor coactivator-1 (SRC-1) (LXXLL-containing domain-2 where L is the amino acid leucine and X indicates any other amino acid (LCD2), 676-700). The sequence of the SRC-1 peptide used is as published in Iannone, M. A. et al, Cytometry 44:326-337 (2001) where the N-terminus was biotinylated (B) and the C-terminus was amidated. Detection of the associated complex was measured by time resolved fluorescence (TRF). The purified LBD of FXR was labeled with biotin then mixed with stoichiometric amounts of allophycocyanin (APC) labeled streptavidin (Molecular Probes). The biotinylated peptide was then mixed with a ½ stoichiometric amount of europium labeled streptavidin (Wallac Inc). Each was then blocked with a 5 fold excess of biotin and allowed to equilibrate for 15 min. Equimolar amounts of receptor and peptide were mixed together and were allowed to equilibrate for at least 30 min prior to the addition to either a variable or constant concentrations of the sample for which the affinity is to be determined. After equilibration, the time-resolved fluorescent signal was quantitated using a fluorescent plate reader. The affinity of the test compound was estimated from a plot of fluorescence versus concentration of test compound added.
A basal level of FXR: peptide formation is observed in the absence of added ligand. Ligands that promote the complex formation induce a concentration-dependent increase in time-resolved fluorescent signal. Compounds which bind equally well to both non-/un-complexed FXR and to the FXR: peptide complex would be expected to give no change in signal, whereas ligands which bind preferentially to the non-/un-complexed receptor would be expected to induce a concentration-dependent decrease in the observed signal.
Human FXR Ligand Binding Domain (FXR LBD) was expressed in E. coli strain BL21 (DE3) as an amino-terminal polyhistidine tagged fusion protein. Expression was under the control of an isopropyl-β-D-thiogalactopyranoside (IPTG) inducible T7 promoter. DNA encoding this recombinant protein is subcloned into the pRSET-A expression vector (Invitrogen). The coding sequence of Human FXR LBD was derived from Genbank accession number U 68233 (amino acids 237 to 472).
Ten-liter fermentation batches were grown in Rich PO4 media with 0.1 mg/mL Ampicillin at 25° C. for 12 hours, cooled to 9° C. and held at that temperature for 36 hours to a density of OD600=14. At this cell density, 0.25 mM IPTG is added and induction proceeded for 24 hours at 9° C., to a final OD600=16. Cells are harvested by centrifugation (20 minutes, 3500× gravity, 4° C.), and concentrated cell slurries were stored in phosphate buffered saline (PBS) at […].
Routinely, 30-40 g cell paste (equivalent to 2-3 liters of the fermentation batch) was resuspended in 200-250 mL Tris buffered saline (TBS), pH 7.2 (25 mM Tris-Hydroxymethylamino methane (Tris), 150 mM NaCl). Cells were lysed by passing 3 times through a French Press and cell debris was removed by centrifugation (30 minutes, 20,000× gravity, 4° C.). The cleared supernatant was filtered through course pre-filters, and TBS, pH 7.2, 500 mM imidazole was added to obtain a final imidazole concentration of 50 mM. This lysate was loaded onto a column (6×8 cm) packed with Sepharose [Ni^++ charged] Chelation resin (Pharmacia) and pre-equilibrated with TBS pH 7.2/50 mM imidazole. After washing to baseline absorbance with equilibration buffer, the column was washed with one column volume of TBS pH 7.2 containing 90 mM imidazole. FXR LBD was eluted directly with 365 mM imidazole. […]

[2] = tested on: hepatic stellate cells (HSC); settings: cultured HSCs; cited from earlier work
[3] = tested on: rodent models of hepatic fibrosis; settings: multiple rodent models; cited from earlier work
[4] = tested on: bile duct-ligated mouse model of cholestasis and intestinal bacterial overgrowth; settings: cited from earlier work
[5] = tested on: high-fat diet induced insulin resistant, glucose intolerant, and obese mouse model; experiment: High-fat diet induced insulin resistant, glucose intolerant, obese mouse model; format: in vivo; settings: C57BL mice, 100 mg/kg twice a day orally
Text: Compounds of formula (I) are also useful for the treatment of diabetes mellitus in a subject, such as a mammal, particularly a human. For example, the compounds of formula (I) are useful for the treatment of type 2 diabetes. The effects of an FXR agonist, GW4064, on body weight, glucose tolerance, serum glucose, serum insulin, serum triglyceride, and liver triglyceride contents via oral administration have been observed in an high-fat diet induced insulin resistant, glucose intolerant, and obese mouse model. Male 20 to 25 g C57BL mice (Charles River, Indianapolis, Ind.) were housed at 72° F. and 50% relative humidity with a 12 h light and dark cycle and fed with standard rodent chow (Purina 5001, Harlan Teklad, Indianapolis, Ind.) or a high-fat diet (TD93075, Harlan Teklad, Indianapolis, Ind.) for seven weeks. After two weeks, mice on high-fat diet were randomized to vehicle or treatment groups. There were no significant difference in body weight, body fat mass, serum glucose and insulin, and area under the curve (AUC) for glucose in glucose tolerance test (GTT) between the vehicle group and the treatment group. Starting from the fourth week, mice were given either vehicle or GW4064 (100 mg/kg) twice a day orally. Mice on the standard rodent chow were also given vehicle as a control. At the end of the third week of compound treatment, a GTT was performed and body composition was measured using the quantitative magnetic resonance (QMR) method. […] Blood glucose during GTT was measured using Bayer Glucometer Elite® XL. Serum chemistry levels were measured using the Instrumentation Laboratory Ilab600™ clinical chemistry analyzer (Instrumentation Laboratory, Boston, Mass.). Liver triglyceride contents were measured using the methanolic-KOH saponification method and a triglyceride assay kit (GPO-TRINDER, Sigma Diagnostics, St. Louis, Mo.). […] It is believed that the result may have been due to a decrease in fat mass.

[6] = tested on: mice on a lithogenic diet; settings: cited from earlier work
[7] = protocol †: 0.1 μL of test compound, final assay volume 10 μL
[8] = protocol ⋄: 0.5 μL of test compound, final assay volume 25 μL

Compound	EC50 [1, 7]	EC50 [1, 8]	also measured
CC(C)c1onc(-c2c(Cl)cccc2Cl)c1COc1ccc(-c2ccc3c(C(=O)O)cccc3c2)cc1 [Example 1, 6-[4-({[3-(2,6-Dichlorophenyl)-5-(1-methylethyl)-4-isoxazolyl]methyl}oxy)phenyl]-1-naphthoic Acid Sodium Salt]	< 100 nM	< 100 nM	
CC(C)c1onc(-c2c(Cl)cccc2Cl)c1COc1ccc(-c2ccc3c(C(=O)O)cccc3c2)c(Cl)c1 [Example 2, 6-[2-Chloro-4-({[3-(2,6-dichlorophenyl)-5-(1-methylethyl)-4-isoxazolyl]methyl}oxy)phenyl]-1-naphthalenecarboxylic acid]	102 to 1000 nM		
O=C(O)c1cccc2cc(-c3ccc(OCc4c(-c5c(Cl)cccc5Cl)noc4C4CCC4)cc3)ccc12 [Example 3, 6-[4-({[5-cyclobutyl-3-(2,6-dichlorophenyl)-4-isoxazolyl]methyl}oxy)phenyl]-1-naphthalenecarboxylic acid]	102 to 1000 nM		
CC(C)c1onc(Cc2c(Cl)cccc2Cl)c1COc1ccc(-c2ccc3c(C(=O)O)cccc3c2)cc1 [Example 4, 6-[4-({[3-[(2,6-dichlorophenyl)methyl]-5-(1-methylethyl)-4-isoxazolyl]methyl}oxy)phenyl]-1-naphthalenecarboxylic acid]		102 to 1000 nM	
CC(C)c1onc(CCc2c(Cl)cccc2Cl)c1COc1ccc(-c2ccc3c(C(=O)O)cccc3c2)cc1 [Example 5, 6-[4-({[3-[2-(2,6-dichlorophenyl)ethyl]-5-(1-methylethyl)-4-isoxazolyl]methyl}oxy)phenyl]-1-naphthalenecarboxylic acid]	102 to 1000 nM	< 100 nM	
CC(C)c1onc(-c2c(Cl)cccc2Cl)c1COc1ccc(-c2ccc3cc(C(=O)O)ccc3c2)cc1 [Example 6, 6-(4-{[3-(2,6-dichlorophenyl)-5-isopropylisoxazol-4-yl]methoxy}phenyl)-2-naphthoic acid]	102 to 1000 nM		
CC[C@H]1[C@@H](O)[C@@H]2[C@H](CC[C@]3(C)[C@@H]([C@H](C)CCC(=O)O)CC[C@@H]23)[C@@]2(C)CC[C@@H](O)C[C@@H]12 [Example 6EtCDCA, 6-ethyl-chenodeoxycholic acid]			expression of fibrotic markers such as α-smooth muscle actin and α1(I)collagen [2]: decreased expression of fibrotic markers; hepatic fibrosis [3]: prevent development and promote resolution of hepatic fibrosis
CC(C)c1onc(-c2c(Cl)cccc2Cl)c1COc1ccc(-c2ccc3ccc(C(=O)O)cc3c2)cc1 [Example 8, 7-[4-({[3-(2,6-dichlorophenyl)-5-(1-methylethyl)-4-isoxazolyl]methyl}oxy)phenyl]-2-naphthalenecarboxylic acid]	102 to 1000 nM		
CC(C)c1onc(CCc2c(Cl)cccc2Cl)c1COc1ccc(-c2ccc3ccc(C(=O)O)cc3c2)cc1 [Example 9, 7-[4-({[3-[2-(2,6-dichlorophenyl)ethyl]-5-(1-methylethyl)-4-isoxazolyl]methyl}oxy)phenyl]-2-naphthalenecarboxylic acid]	102 to 1000 nM		
CC(C)c1onc(-c2c(Cl)cccc2Cl)c1COc1ccc(-c2ccc3cccc(C(=O)O)c3c2)cc1 [Example 10, 7-[4-({[3-(2,6-dichlorophenyl)-5-(1-methylethyl)-4-isoxazolyl]methyl}oxy)phenyl]-1-naphthalenecarboxylic acid]	1020 to 10000 nM		
CC(C)c1onc(CCc2c(Cl)cccc2Cl)c1COc1ccc(-c2ccc3cccc(C(=O)O)c3c2)cc1 [Example 11, 7-[4-({[3-[2-(2,6-dichlorophenyl)ethyl]-5-(1-methylethyl)-4-isoxazolyl]methyl}oxy)phenyl]-1-naphthalenecarboxylic acid]	1020 to 10000 nM		
CC(C)c1onc(-c2c(Cl)cccc2Cl)c1COc1ccc(/C=C/c2cccc(C(=O)O)c2)c(Cl)c1 [GW4064]			effect on translocation of bacteria in FXR null mice ([4]; FXR null mice): lost in FXR null mice; bacterial overgrowth ([4]; bile duct-ligated mice): decreased bacterial overgrowth; mucosal barrier ([4]; bile duct-ligated mice): improved mucosal barrier; translocation of bacteria to mesenteric lymph nodes ([4]; bile duct-ligated mice): decreased translocation of bacteria to mesenteric lymph nodes; high-fat diet induced body weight gain [5]: reduced the high-fat diet induced body weight gain; glucose tolerance (GTT) ([5]; end of third week of treatment): appeared to improve glucose tolerance; liver triglyceride content ([5]; fourth week of treatment): reduced liver triglyceride content; serum glucose ([5]; fourth week of treatment): decreased; serum insulin ([5]; fourth week of treatment): decreased; serum triglyceride ([5]; fourth week of treatment): decreased; effect on cholesterol crystal formation in FXR null mice ([6]; FXR null mice): lost in FXR null mice; formation of cholesterol crystals in the bile ([6]; mice on a lithogenic diet): prevented the formation of cholesterol crystals in the bile

The next lines start with results.

EC50 [1, 7]	EC50 [1, 8]	Compound	also measured
	1020 to 10000 nM	CC(C)c1onc(-c2c(Cl)cccc2Cl)c1COc1ccc(-c2ccc3c(C(N)=O)cccc3c2)cc1 [Example 12a, 6-[4-({[3-(2,6-dichlorophenyl)-5-(1-methylethyl)-4-isoxazolyl]methyl}oxy)phenyl]-1-naphthalenecarboxamide]	
	1020 to 10000 nM	CC(C)c1onc(-c2c(Cl)cccc2Cl)c1COc1ccc(-c2ccc3c(C#N)cccc3c2)cc1 [Example 12b, 6-[4-({[3-(2,6-dichlorophenyl)-5-(1-methylethyl)-4-isoxazolyl]methyl}oxy)phenyl]-1-naphthalenecarbonitrile]	
	102 to 1000 nM	CC(C)c1onc(-c2c(Cl)cccc2Cl)c1COc1ccc(-c2ccc3c(-c4nn[nH]n4)cccc3c2)cc1 [Example 12c, 5-{6-[4-({[3-(2,6-dichlorophenyl)-5-(1-methylethyl)-4-isoxazolyl]methyl}oxy)phenyl]-1-naphthalenyl}-1H-tetrazole]	
